The results in this text go back to patent publication US20110112101A1, “TREATMENT FOR OCULAR-RELATED DISORDERS” (SANOFI-AVENTIS, priority 2009, published 2011).

Each structure is given as a SMILES string.

The test system of the assay is laser induced plaque on the retina (model of wet AMD). The assay can be described thus: laser induced model of macular degeneration in the rat. It is filed as in vivo. Conditions: for % Inhibition of Plaque: krypton laser injury of retina. The method, then:
Several models of wet AMD are available in the rodent and rabbit. The pre-clinical efficacy of the compound of Formula I was assessed in a laser induced model of macular degeneration in the rat. In this model, injury is induced on the retina of the rat by a focused laser beam. This injury results in vascularization and inflammation, and the subsequent formation of a plaque on the retina that is associated with loss of vision. The ability of treatments with a compound of Formula Ito inhibit the size and thickness of such plaques serves as an indicator for the potential for the treatment of wet AMD patients. A krypton laser was used to irradiate the retina of a rat eye at 75 microns for 0.1 seconds, at each of 3-4 spots. From days 1 to 14, the irradiated rats were dosed twice a day with the compound of Formula I perorally (bid PO). Doses used were 3 mg/kg, 10 mg/kg, and 30 mg/kg body weight. An additional treatment group was given the vehicle for the oral compound, also bid PO administration. A positive control was used with 0.5 mg triamcinolone delivered to the intraocular subtendon. At 14 days after such irradiation, the rat was perfused with FITC-dextran (fluorescein isothiocyanate dextran) and the eyes were removed for evaluation. Evaluation was by fundoscopy and fluorescein angiography.

As to `CCc1c(-c2ccc(C(C)(C)O)cc2)[nH]c2nccnc12` [compound of Formula I, 2-[4-(7-Ethyl-5H-pyrrolo[2,3-b]pyrazin-6-yl)-phenyl]-propan-2-ol], the “% Inhibition of Plaque” value is 12% (3 mg/kg bid PO days 1 to 14, evaluated at 14 days); 36% (10 mg/kg bid PO days 1 to 14, evaluated at 14 days); 33% (30 mg/kg bid PO days 1 to 14, evaluated at 14 days). In addition, the plaque thickness entry (laser induced model, 30 and 10 mg/kg bid PO) is reported as “significantly reduced plaque thickness”. Moreover, the “results compared with positive control triamcinolone” value (laser induced model, 30 and 10 mg/kg bid PO versus 0.5 mg triamcinolone) is reported as “significantly better”.

Take `C[C@]12C=CC(=O)C=C1CC[C@H]1[C@@H]3C[C@@H](O)[C@](O)(C(=O)CO)[C@@]3(C)C[C@H](O)[C@@]12F` [triamcinolone, reference compound]: the “% Inhibition of Plaque” value (positive control 0.5 mg delivered to the intraocular subtendon, evaluated at 14 days) was 26%.
